According to US7217730B2, “Method for the use of pyranoindole derivatives to treat infection with Hepatitis C virus” (Wyeth, priority 2002, dated 2007):

Target: T1, NS5B from the BK strain (genotype 1b) (Hepatitis C virus genotype 1b, UniProt P26663)
T1 construct: NS5B from the BK strain (genotype 1b) is expressed in E. coli as a protein in which the 21 C-terminal amino acids are replaced; made in house; host or cells: E. coli
Experiment: Hepatitis C polymerase inhibition, NS5B BK strain, 33P-GTP filter assay
Format: biochemical
Details: Table 1A; for inhibition at 20 µM: 20 μM compound, read-out: HCV pol % inh at 20 μM; for IC50: NS5B BK strain, read-out: HCV pol BK IC50
How it was run: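 Radiolabelled RNA synthesis was measured by filter capture and scintillation counting after EDTA stop. His-tagged, C-terminally truncated (Δ21) genotype 1b BK NS5B from E. coli, pre-exposed to compound for 15 min, copied a self-primed RNA template (~3 nM) with α-[33P]-GTP for 2 h at room temperature.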

T1 sequence (P26663 2420-2989): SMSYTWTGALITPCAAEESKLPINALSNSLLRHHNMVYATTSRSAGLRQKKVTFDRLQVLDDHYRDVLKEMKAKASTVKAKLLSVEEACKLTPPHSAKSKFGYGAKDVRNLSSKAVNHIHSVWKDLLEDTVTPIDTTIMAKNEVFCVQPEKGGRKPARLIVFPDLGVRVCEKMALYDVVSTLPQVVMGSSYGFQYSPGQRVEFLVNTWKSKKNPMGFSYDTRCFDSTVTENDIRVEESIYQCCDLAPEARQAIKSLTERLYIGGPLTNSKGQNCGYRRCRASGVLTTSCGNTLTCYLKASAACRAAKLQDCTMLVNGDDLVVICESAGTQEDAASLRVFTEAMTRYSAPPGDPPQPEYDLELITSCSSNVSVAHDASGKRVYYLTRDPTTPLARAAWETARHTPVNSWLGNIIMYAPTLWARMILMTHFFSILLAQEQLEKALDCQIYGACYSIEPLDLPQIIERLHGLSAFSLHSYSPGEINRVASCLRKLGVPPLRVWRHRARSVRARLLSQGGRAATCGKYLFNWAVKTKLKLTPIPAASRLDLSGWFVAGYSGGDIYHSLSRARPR

| Structure (SMILES) | inhibition at 20 µM [%] | IC50 [µM] |
| --- | --- | --- |
| CC1(CC(=O)O)OCCc2c1[nH]c1cc(Cl)cc(Cl)c21 (stereo not drawn) [Example 114, (5,7-dichloro-1-methyl-1,3,4,9-tetrahydropyrano[3,4-b]indol-1-yl)acetic acid] | 57 | > 20 |
| CC1(CC(=O)O)OCCc2c1[nH]c1c(C(F)(F)F)cccc21 (stereo not drawn) [Example 115, [1-methyl-8-(trifluoromethyl)-1,3,4,9-tetrahydropyrano[3,4-b]indol-1-yl]acetic acid] | 40 | > 20 |
| CCC1(CC(=O)O)OCCc2c1[nH]c1c(C(F)(F)F)cccc21 (stereo not drawn) [Example 116, [1-ethyl-8-(trifluoromethyl)-1,3,4,9-tetrahydropyrano[3,4-b]indol-1-yl]acetic acid] | 34 | > 20 |
| CCCC1(CC(=O)O)OCCc2c1[nH]c1c(C(F)(F)F)cccc21 (stereo not drawn) [Example 117, [1-propyl-8-(trifluoromethyl)-1,3,4,9-tetrahydropyrano[3,4-b]indol-1-yl]acetic acid] | 39 | 9.6 |
| CC(C)C1(CC(=O)O)OCCc2c1[nH]c1c(C(F)(F)F)cccc21 (stereo not drawn) [Example 118, [1-isopropyl-8-(trifluoromethyl)-1,3,4,9-tetrahydropyrano[3,4-b]indol-1-yl]acetic acid] | 10 | > 20 |
| CCCCC1(CC(=O)O)OCCc2c1[nH]c1c(C(F)(F)F)cccc21 (stereo not drawn) [Example 119, [1-butyl-8-(trifluoromethyl)-1,3,4,9-tetrahydropyrano[3,4-b]indol-1-yl]acetic acid] | 31 | > 20 |
| C/C=C/CCC1(CC(=O)O)OCCc2c1[nH]c1c(C(F)(F)F)cccc21 (stereo not drawn) [Example 120, [1-[(3E)-pent-3-enyl]-8-(trifluoromethyl)-1,3,4,9-tetrahydropyrano[3,4-b]indol-1-yl]acetic acid] | 33 | > 20 |
| O=C(O)CC1(c2ccccc2)OCCc2c1[nH]c1c(C(F)(F)F)cccc21 (stereo not drawn) [Example 121, [1-phenyl-8-(trifluoromethyl)-1,3,4,9-tetrahydropyrano[3,4-b]indol-1-yl]acetic acid] | < 5 | > 20 |
| CC1(CC(=O)O)OCCc2c1[nH]c1c(F)ccc(F)c21 (stereo not drawn) [Example 122, (5,8-difluoro-1-methyl-1,3,4,9-tetrahydropyrano[3,4-b]indol-1-yl)acetic acid] | 5 | > 20 |
| CCC1(CC(=O)O)OCCc2c1[nH]c1c(F)ccc(F)c21 (stereo not drawn) [Example 123, (1-ethyl-5,8-difluoro-1,3,4,9-tetrahydro-pyrano[3,4-b]indol-1-yl)acetic acid] | 51 | > 20 |
| CCCC1(CC(=O)O)OCCc2c1[nH]c1c(F)ccc(F)c21 (stereo not drawn) [Example 124, (5,8-difluoro-1-propyl-1,3,4,9-tetrahydro-pyrano[3,4-b]indol-1-yl)acetic acid] | 61 | 6.7 |
| CC(C)C1(CC(=O)O)OCCc2c1[nH]c1c(F)ccc(F)c21 (stereo not drawn) [Example 125, (5,8-difluoro-1-isopropyl-1,3,4,9-tetrahydropyrano[3,4-b]indol-1-yl)acetic acid] | 73 | > 20 |
| CCCCC1(CC(=O)O)OCCc2c1[nH]c1c(F)ccc(F)c21 (stereo not drawn) [Example 126, (1-butyl-5,8-difluoro-1,3,4,9-tetrahydropyrano[3,4-b]indol-1-yl)acetic acid] | 35 | > 20 |
| C/C=C/CCC1(CC(=O)O)OCCc2c1[nH]c1c(F)ccc(F)c21 (stereo not drawn) [Example 127, {5,8-difluoro-1-[(3E)-pent-3-enyl]-1,3,4,9-tetrahydropyrano[3,4-b]indol-1-yl}acetic acid] | 24 | > 20 |
| O=C(O)CC1(c2ccc(C(=O)O)cc2)OCCc2c1[nH]c1c(F)ccc(F)c21 (stereo not drawn) [Example 128, 4-[1-(carboxymethyl)-5,8-difluoro-1,3,4,9-tetrahydropyrano[3,4-b]indol-1-yl]benzoic acid] | 70 | > 20 |
| CC1(CC(=O)O)OCCc2c1[nH]c1c(Cl)ccc(C(F)(F)F)c21 (stereo not drawn) [Example 129, [8-chloro-1-methyl-5-(trifluoromethyl)-1,3,4,9-tetrahydropyrano[3,4-b]indol-1-yl]acetic acid] | 45 | > 20 |
| CCC1(CC(=O)O)OCCc2c1[nH]c1c(Cl)ccc(C(F)(F)F)c21 (stereo not drawn) [Example 130, [8-chloro-1-ethyl-5-(trifluoromethyl)-1,3,4,9-tetrahydropyrano[3,4-b]indol-1-yl]acetic acid] | 77 | 5.5 |
| CCCC1(CC(=O)O)OCCc2c1[nH]c1c(Cl)ccc(C(F)(F)F)c21 (stereo not drawn) [Example 131, [8-chloro-1-propyl-5-(trifluoromethyl)-1,3,4,9-tetrahydropyrano[3,4-b]indol-1-yl]acetic acid] | 93 | 0.32 |

| Structure (SMILES) | inhibition at 20 µM [%] | IC50 [µM] |
| --- | --- | --- |
| CC(C)C1(CC(=O)O)OCCc2c1[nH]c1c(Cl)ccc(C(F)(F)F)c21 (stereo not drawn) [Example 132, [8-chloro-1-isopropyl-5-(trifluoromethyl)-1,3,4,9-tetrahydropyrano[3,4-b]indol-1-yl]acetic acid] | 78 | 9.5 |
| CCCCC1(CC(=O)O)OCCc2c1[nH]c1c(Cl)ccc(C(F)(F)F)c21 (stereo not drawn) [Example 133, [1-butyl-8-chloro-5-(trifluoromethyl)-1,3,4,9-tetrahydropyrano[3,4-b]indol-1-yl]acetic acid] | 88 | 0.7 |
| C/C=C/CCC1(CC(=O)O)OCCc2c1[nH]c1c(Cl)ccc(C(F)(F)F)c21 (stereo not drawn) [Example 134, [8-chloro-1-[(3E)-pent-3-enyl]-5-(trifluoromethyl)-1,3,4,9-tetrahydropyrano[3,4-b]indol-1-yl]acetic acid] | 28 | > 20 |
| O=C(O)CC1(c2ccccc2)OCCc2c1[nH]c1c(Cl)ccc(C(F)(F)F)c21 (stereo not drawn) [Example 135, [8-chloro-1-phenyl-5-(trifluoromethyl)-1,3,4,9-tetrahydropyrano[3,4-b]indol-1-yl]acetic acid] | 55 | > 20 |
| O=C(O)CC1(c2ccoc2)OCCc2c1[nH]c1c(Cl)ccc(C(F)(F)F)c21 (stereo not drawn) [Example 136, [8-chloro-1-(3-furyl)-5-(trifluoromethyl)-1,3,4,9-tetrahydropyrano[3,4-b]indol-1-yl]acetic acid] | 81 | 4.3 |
| Cc1ccc(C)c2c3c([nH]c12)C(C)(CC(=O)O)OCC3 (stereo not drawn) [Example 137, (1,5,8-trimethyl-1,3,4,9-tetrahydropyrano[3,4-b]indol-1-yl)acetic acid] | 5 | > 20 |
| CCC1(CC(=O)O)OCCc2c1[nH]c1c(C)ccc(C)c21 (stereo not drawn) [Example 138, (1-ethyl-5,8-dimethyl-1,3,4,9-tetrahydropyrano[3,4-b]indol-1-yl)acetic acid] | 38 | > 20 |
| CCCC1(CC(=O)O)OCCc2c1[nH]c1c(C)ccc(C)c21 (stereo not drawn) [Example 139, (5,8-dimethyl-1-propyl-1,3,4,9-tetrahydropyrano[3,4-b]indol-1-yl)acetic acid] | 40 | 8.3 |
| Cc1ccc(F)c2c3c([nH]c12)C(C)(CC(=O)O)OCC3 (stereo not drawn) [Example 140, (5-fluoro-1,8-dimethyl-1,3,4,9-tetrahydropyrano[3,4-b]indol-1-yl)acetic acid] | 28 | > 20 |
| CCCC1(CC(=O)O)OCCc2c1[nH]c1c(C)ccc(F)c21 (stereo not drawn) [Example 141, (5-fluoro-8-methyl-1-propyl-1,3,4,9-tetrahydropyrano[3,4-b]indol-1-yl)acetic acid] | 79 | 1.4 |
| CCC1(CC(=O)O)OCCc2c1[nH]c1c(C)ccc(F)c21 (stereo not drawn) [Example 142, (1-ethyl-5-fluoro-1,3,4,9-tetrahydro-8-methyl-pyrano[3,4-b]indol-1-yl)acetic acid] | 39 | 19.8 |
| Cc1ccc(F)c2c3c([nH]c12)C(CC(=O)O)(C(C)C)OCC3 (stereo not drawn) [Example 143, (5-fluoro-1-isopropyl-8-methyl-1,3,4,9-tetrahydropyrano[3,4-b]indol-1-yl)acetic acid] | 56 | 16.5 |
| CCCCC1(CC(=O)O)OCCc2c1[nH]c1c(C)ccc(F)c21 (stereo not drawn) [Example 144, (1-butyl-5-fluoro-8-methyl-1,3,4,9-tetrahydropyrano[3,4-b]indol-1-yl)acetic acid] | 73 | 6 |
| C/C=C/CCC1(CC(=O)O)OCCc2c1[nH]c1c(C)ccc(F)c21 (stereo not drawn) [Example 145, {5-fluoro-8-methyl-1-[(3E)-pent-3-enyl]-1,3,4,9-tetrahydropyrano[3,4-b]indol-1-yl}acetic acid] | 20 | > 20 |
| Cc1ccc(F)c2c3c([nH]c12)C(CC(=O)O)(c1ccccc1)OCC3 (stereo not drawn) [Example 146, (5-fluoro-8-methyl-1-phenyl-1,3,4,9-tetrahydropyrano[3,4-b]indol-1-yl)acetic acid] | 45 | > 20 |
| CCCC1(CC(=O)O)OCCc2c1[nH]c1c(F)ccc(-c3ccccc3)c21 (stereo not drawn) [Example 147, (8-fluoro-5-phenyl-1-propyl-1,3,4,9-tetrahydropyrano[3,4-b]indol-1-yl)acetic acid] | 34 |  |
| CCCC1(CC(=O)O)OCCc2c1[nH]c1c(F)ccc(-c3ccc(C)cc3)c21 (stereo not drawn) [Example 148, [8-fluoro-5-(4-methylphenyl)-1-propyl-1,3,4,9-tetrahydropyrano[3,4-b]indol-1-yl]acetic acid] | 47 | > 20 |
